Laboratory results as given in patent EP0390602A1, “Neurotrophic peptides” (SUMITOMO PHARMACEUTICALS COMPANY, LIMITED, priority 1989, dated 1990).
Several values for one entry are separate records, joined by “and”; a condition that tells them apart may be missing. Equal entries are not always repeated. Where no end group is shown, it is not given here.

Test system: culture of rat medial septum nucleous
Assay: Enhancing effect on acetylcholine synthesis in culture of rat medial septum nucleus (method of Ojika et al.)
Type: cell-based
Conditions: for Ash synthesis (%): Table 4, Concentration 1 x 10⁻⁸, control value as 100%, several single values per cell
Method: The neurotrophic peptide and its derivative of the present invention can regulate differentiation and maturation of neuronal cells. That is, the neurotrophic peptide and its derivative accelerate the acetylcholine synthesis in the tissue of medial septum nucleous which is rich in cholinergic neuron. The biological activity can be determined by the method of Ojika, K., et al. [Ojika, K., et al., Japanese Journal of Psycopharmacology, 7, 447-451, (1987)].
The peptides were assayed for a biological activity in accordance with the method of Ojika et al. [Japanese Journal of Psycopharmacology, 7, 447-451 (1987)]. Namely, medial septum nucleous removed from rat embryonal brain (16 day embryo) is cut to small pieces, then the pieces were cultured in the Bottenstein's modified N₂ medium containing 1% FCS of saturation concentration, in Falcon's 35 mm plastic culture dish with 7% CO₂ mixed air, at 36°C. The neurotrophic peptide or its derivative was added to the cultures at initial day. In a control group, no peptide is added. The neurotrophic peptide may be added to the culture at 3 days after the initial day. After 6 days culture, an acetylcholine synthesis activity of cultured tissue was assayed to determine the biological activity of the peptide. The acetylcholine synthesis activity was assayed as follows.
A cultured tissue was pre-incubated in high potasium Tyrode solution buffered with tris-HCl (pH 7.4) containing 98 mM of Nacl and 55 mM of Kcl , then incubated in a buffered solution containing 100 nM [³H] choline chloride (15 Ci/mmol) at 37°C for 30 minutes. After washing out of free [³H] choline, the tissue was dissolved in 1 N formic acid/acetone (15 : 85) solution. Free [³H] choline was converted to phosphocholine by choline kinase (0.1 unit/ml) and [³H] acetylcholine was extracted with tetraphenyl boron (5 mg/ml acetonitrile) to determine the acetylcholine synthesis activity. The activity of cultured tissue for synthesis of acetylcholine was defined as an amount of synthesized acetylcholine per piece of cultured tissue.

| Substance | Ash synthesis (%) | Ach synthesis activity (Table 3, 2.5 pg/ml, 6 days culture, average value in triplet assay, Control 7.1 ± 1.1) [fmol/specimen] | acetylcholine synthesis activity as compared with control culture (concentration of 2.5 pg/ml) [%] |
| --- | --- | --- | --- |
| Ac-AADISQWAG-NH2 [Ac-HCNP(1-9)NH₂] | 227% and 216% | – | – |
| DISQWAG-NH2 [HCNP(3-9)NH₂] | 224% and 138% | – | – |
| H-AADISQWAGPL-OH [f-HCNP, H-Ala-Ala-Asp-Ile-Ser-Gln-Trp-Ala-Gly-Pro-Leu-OH] | – | 11.3 ± 0.8 | 159 |
| ISQWAGPL [HCNP(4-11)OH, Ile-Ser-Gln-Trp-Ala-Gly-Pro-Leu] | 160% and 139% | – | – |
